Values of other authors in patent publication US20240115695A1, “Method of Obtaining Betulin as an Adjuvant in a Vaccine Against Coronavirus SARS-COV-2” (BETUVAKS LIMITED LIABILITY COMPANY, priority 2020, published 2024).

How the values were obtained:
[1] = in vivo

Compound	solubility of betulin	LD50 [1] [mg/kg]	MPC [1] [mg/m^3]
C=C(C)[C@@H]1CC[C@]2(CO)CC[C@]3(C)[C@H](CC[C@@H]4[C@@]5(C)CC[C@H](O)C(C)(C)[C@@H]5CC[C@]43C)[C@@H]12 [betulin]	less than 1 μg/mL	–	–
C1CCOC1 [THF, tetrahydrofuran]	–	2300	100
